Target: T1, human non-pancreatic sPLA2 (type IIa) (Homo sapiens, UniProt P14555)
T1 construct: Garvan Institute for Medical Research (provided, not a commercial vendor)
T1 sequence (P14555 21-144): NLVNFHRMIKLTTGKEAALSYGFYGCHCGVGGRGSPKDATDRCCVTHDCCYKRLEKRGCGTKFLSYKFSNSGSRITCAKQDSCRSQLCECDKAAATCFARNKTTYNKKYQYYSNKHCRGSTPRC
Assay: Assay for inhibition of human non-pancreatic sPLA2 (type IIa), mixed micelle colorimetric assay
Format: biochemical
Conditions: recombinant hIIa-PLA2; substrate diheptanoyl thio-phosphatidyl choline, DTNB detection; IC50 from Dixon plot extrapolation; read-out: IC50, inhibition of human secretary PLA2
Excerpt: Assay for Inhibition of Human Non-Pancreatic sPLA2 (type IIa)
A mixed nucelle colorimetric assay utilising a microtitreplate reader was used as described by Reynolds, L. J.; Hughes, L. L.; Dennis, E. A. “Analysis of human synovial fluid phospholipase A2 on short chain phosphatidylcholine-mixed micelles: Development of a spectrophotometric assay suitable for a microplate reader”. Anal Biochem. 1992, 204, 190-197.
Reagents were obtained commercially in the sPhospholipase A2 Assay Kit, Cayman Chemical Company MI USA. Buffer (25 mM Tris HCl at pH 7.5, 1 mg/mL BSA, 0.3 mM Triton X-100, 100 mM KCl, 10 mM CaCl2), substrate (diheptanoyl thio-phosphatidyl choline), DTNB (5,5′-dithiobis(2-nitrobenzoic acid)) and a 96 well plate were all provided. Recombinant hIIa-PLA2 was provided by the Garvan Institute for Medical Research. […] Standard inhibitor solutions were prepared from anhydrous DMSO. All samples were run in triplicate including the blank and control samples. Data was collected on a Molecular Devices Spectramax 250 Microplate Spectrophotometer using Softmax Pro Microplate Analysis Software v2.21. […] Thio-PC is processed by s-PLA2 and the free thiol produced is detected with DTNB (Ellman's Reagent). 5-Thio-2-nitrobenzoic acid is detected spectrophotometrically at […]. IC50's were determined by assaying inhibitors at a range of concentrations.

Row | Structure (SMILES) | IC50
1 | O=C(O)CCC(Cc1ccc(OCc2ccccc2)cc1)NC(=O)CCCCCc1ccccc1 (racemic) [Compound 86, (RS)-5-(4-Benzyloxy-phenyl)-4-(6-phenyl-hexanoylamino)-pentanoic acid] | 383 nM
2 | O=C(O)CC[C@@H](CCc1ccc(Oc2ccccc2)cc1)NC(=O)CCCCCCc1cccnc1 [Compound 107, 6-(4-Phenoxy-phenyl)-4R-(7-pyridin-3-yl-heptanoylamino)-hexanoic acid] | 1700 nM
3 | O=C(O)CCC(Cc1ccc(OCc2ccccc2)cc1)NC(=O)CCCCCCCc1ccccc1 (racemic) [Compound 87, (RS)-5-(4-Benzyloxy-phenyl)-4-(8-phenyl-octanoylamino)-pentanoic acid] | 435 nM
4 | O=C(CCCCCCc1ccccc1)NC(COP(=O)(O)CCCO)Cc1ccc(OCc2ccccc2)cc1 (centres unmarked) [Compound 62, (3-Hydroxy-propyl)-phosphonic acid mono-[3-(4-benzyloxy-phenyl)-2-(7-phenyl-heptanoylamino)-propyl]ester] | 24 nM
5 | O=C(CCCCCCc1ccccc1)N[C@@H](CCc1nnn[nH]1)Cc1ccc(OCc2ccccc2)cc1 [Compound 66, (S)-7-Phenyl-heptanoic acid [1-(4-benzyloxy-benzyl)-3-(1H-tetrazol-5-yl)-propyl]-amide] | 356 nM
6 | O=C(O)CC[C@@H](CCc1ccc(Oc2ccccc2)cc1)NC(=O)CCCCCCc1ccccc1 [Compound 106, 6-(4Phenoxy-phenyl)-4R-(7-phenyl-heptanoylamino)-hexanoic acid] | 99 nM
7 | O=C(O)CC[C@@H](Cc1cn(CCCc2ccccc2)c2ccccc12)NC(=O)CCCCCCc1ccccc1 [Compound 20, (S)-4-(7-Phenyl-heptanoylamino)-5-[1-(3-phenyl-propyl)-1H-indol-3-yl]-pentanoic acid] | 2900 nM
8 | O=C(O)CCC(Cc1ccc(OCc2ccccc2)cc1)NC(=O)CCCCCCc1cccnc1 (racemic) [Compound 91, (RS)-5-(4-Benzyloxy-phenyl)-4-(7-pyridin-3-yl-heptanoylamino)-pentanoic acid] | 1520 nM
9 | O=C(O)CCC(Cc1cn(CCCc2ccccc2)cn1)NC(=O)CCCCCCc1ccccc1 (centres unmarked) [Compound 32, 4-(7-Phenyl-heptanoylamino)-5-[1-(3-phenyl-propyl)-1H-imidazol-4-yl]-pentanoic acid] | 2500 nM
10 | O=C(CCCCCCc1ccccc1)N[C@@H](COP(=O)(O)CCCOc1ccccc1)Cc1ccc(OCc2ccccc2)cc1 [Compound 57, (R)-(3-Phenoxy-propyl)-phosphonic acid mono-[3-(4-benzyloxy-phenyl)-2-(7-phenyl-heptanoylamino)-propyl]ester] | 656 nM
11 | O=C(O)CCC(Cc1ccc(OCc2cccnc2)cc1)NC(=O)CCCCCCc1ccccc1 (racemic) [Compound 96, (RS)-4-(7-Phenyl-heptanoylamino)-5-[4-(pyridin-3-ylmethoxy)-phenyl]-pentanoic acid] | 454 nM
12 | CC(=O)Nc1cccc(CCCCCCC(=O)NC(CCC(=O)O)Cc2ccc(OCc3ccccc3)cc2)c1 (racemic) [Compound 89, (RS)-4-[7-(3-Acetylamino-phenyl)-heptanoylamino]-5-(4-benzyloxy-phenyl)-pentanoic acid] | 8100 nM
13 | COc1ccccc1CCCCCCC(=O)NC(CCC(=O)O)Cc1ccc(OCc2ccccc2)cc1 (racemic) [Compound 88, (RS)-5-(4-Benzyloxy-phenyl)-4-[7-(2-methoxy-phenyl)-heptanoylamino]-pentanoic acid] | 7400 nM
14 | O=C(O)CCC(Cc1ccc(OCc2ccccc2)cc1)NC(=O)CCCCCCc1cccc([N+](=O)[O-])c1 (racemic) [Compound 90, (RS)-5-(4-Benzyloxy-phenyl)-4-[7-(3-nitro-phenyl)-heptanoylamino]-pentanoic acid] | 1070 nM
15 | O=C(O)CCC(CCc1ccccc1)NC(=O)CCCCCCc1ccccc1 (racemic) [Compound 102, (RS)-6-Phenyl-4-(7-phenyl-heptanoylamino)-hexanoic acid] | 1500 nM
16 | O=C(O)CCC(Cc1ccc(OCc2ccccn2)cc1)NC(=O)CCCCCCc1ccccc1 (racemic) [Compound 95, (RS)-4-(7-Phenyl-heptanoylamino)-5-[4-(pyridin-2-ylmethoxy)-phenyl]-pentanoic acid] | 428 nM
17 | O=C(O)CC[C@@H](Cc1cn(Cc2ccccc2)c2ccccc12)NC(=O)CCCCCCc1ccccc1 [Compound 19, (S)-5-(1-Benzyl-1H-indol-3-yl)-4-(7-phenyl-heptanoylamino)-pentanoic acid] | 5700 nM

Reference: patent publication US7253194B2, “Compounds and inhibitors of phospholipases” (The University of Queensland, priority 2000, dated 2007)
